Values quoted from earlier work as cited in EP3815682A1, “A PERK KINASE INHIBITOR FOR TREATING DISEASES ASSOCIATED WITH ENDOPLASMIC RETICULUM STRESS” (Uniwersytet Medyczny w Lodzi, priority 2019, dated 2021).

Experiments:
[1] = test system: PERK and eIF2α
[2] = test system: pancreatic cells
[3] = target: T1, PERK kinase and eIF2α protein phosphorylation (Homo sapiens, UniProt Q9NZJ5); details: Atkins et al.
T1 sequence (Q9NZJ5 30-1116): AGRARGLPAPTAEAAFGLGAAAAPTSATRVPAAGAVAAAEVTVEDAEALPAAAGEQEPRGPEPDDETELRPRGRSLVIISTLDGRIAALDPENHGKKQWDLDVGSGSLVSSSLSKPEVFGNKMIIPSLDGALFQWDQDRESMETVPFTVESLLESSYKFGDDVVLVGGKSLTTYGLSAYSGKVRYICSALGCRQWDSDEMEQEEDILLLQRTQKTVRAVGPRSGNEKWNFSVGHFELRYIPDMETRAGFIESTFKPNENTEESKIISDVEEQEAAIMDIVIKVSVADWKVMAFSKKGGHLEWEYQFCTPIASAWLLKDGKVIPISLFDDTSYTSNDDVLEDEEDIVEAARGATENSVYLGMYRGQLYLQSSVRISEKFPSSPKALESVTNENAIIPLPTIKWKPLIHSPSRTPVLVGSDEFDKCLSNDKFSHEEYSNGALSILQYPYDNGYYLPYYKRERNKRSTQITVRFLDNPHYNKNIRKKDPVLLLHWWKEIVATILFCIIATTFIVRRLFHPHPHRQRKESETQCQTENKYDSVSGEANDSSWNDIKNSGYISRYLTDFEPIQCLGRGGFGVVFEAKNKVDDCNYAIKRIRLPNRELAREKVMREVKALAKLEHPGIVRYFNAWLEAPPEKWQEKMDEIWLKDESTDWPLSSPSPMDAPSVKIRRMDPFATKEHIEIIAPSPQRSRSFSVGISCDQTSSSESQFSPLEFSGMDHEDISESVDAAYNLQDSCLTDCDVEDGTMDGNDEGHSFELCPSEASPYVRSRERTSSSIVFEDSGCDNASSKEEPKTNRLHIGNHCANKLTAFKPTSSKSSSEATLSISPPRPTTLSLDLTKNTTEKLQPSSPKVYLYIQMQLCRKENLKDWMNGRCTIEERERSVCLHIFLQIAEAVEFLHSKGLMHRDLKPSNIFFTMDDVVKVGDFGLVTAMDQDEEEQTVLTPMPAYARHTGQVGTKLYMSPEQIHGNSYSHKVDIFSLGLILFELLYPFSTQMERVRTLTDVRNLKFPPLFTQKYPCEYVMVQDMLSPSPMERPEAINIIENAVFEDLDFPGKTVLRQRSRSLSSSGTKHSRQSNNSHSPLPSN

[4] = test system: pancreatic cells; details: reason for not entering clinical trials
[5] = not told
[6] = test system: eIF2α phosphorylation
[7] = animals administered the inhibitor

Cn1cc(-c2ccc3c(c2)CCN3C(=O)Cc2cccc(C(F)(F)F)c2)c2c(N)ncnc21 [GSK2606414]
level of phosphorylated forms of PERK and eIF2α ([1]; compared with mice not administered the inhibitor): substantially lower | protein synthesis in cells ([1]; mouse, in vivo): temporary restoration of protein synthesis | glycemia [2, 7]: hyperglycemia | weight [2, 7]: significant weight loss | effect on pancreatic cells ([2]; mice): cytotoxic effect

Cc1cccc(CC(=O)N2CCc3c2ccc(-c2cn(C)c4ncnc(N)c24)c3F)n1 [GSK2656157]
inhibition of PERK kinase and eIF2α protein phosphorylation [3]: effective inhibition | activity on pancreatic cells [4]: non-selective activity also on pancreatic cells

O=C(COc1ccc(Cl)cc1)NC1CCC(NC(=O)COc2ccc(Cl)cc2)CC1 (stereo not shown) [ISRIB]
permeability of the blood-brain barrier [5]: good permeability

O=C(/C=C/c1ccccc1)NC(NC(=S)Nc1cccc2cccnc12)C(Cl)(Cl)Cl (stereo not shown) [Salubrinal]
survival ([6]; compared with animals that did not receive the compound): died quicker | eIF2α phosphorylation ([6]; mouse, in vivo): increase
